One data set has as its target T1, recombinant human TDP2 (Homo sapiens, UniProt O95551).
T1 sequence (O95551 1-362): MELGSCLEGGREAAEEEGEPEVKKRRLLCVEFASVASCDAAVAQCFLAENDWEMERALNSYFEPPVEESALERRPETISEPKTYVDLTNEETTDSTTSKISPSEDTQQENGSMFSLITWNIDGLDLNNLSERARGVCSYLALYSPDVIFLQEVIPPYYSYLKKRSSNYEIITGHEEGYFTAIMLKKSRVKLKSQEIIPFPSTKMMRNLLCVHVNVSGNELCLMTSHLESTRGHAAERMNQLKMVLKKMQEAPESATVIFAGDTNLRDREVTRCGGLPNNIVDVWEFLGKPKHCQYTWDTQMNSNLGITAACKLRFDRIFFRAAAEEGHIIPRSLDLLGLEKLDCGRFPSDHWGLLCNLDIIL
Nature of the data set: Recombinant TDP2 assay. The class given is biochemical. The settings on record: recombinant human TDP2, gel-based; read-out: TDP2: IC50 values for the inhibition of TDP2. The text has this: Reactions were terminated and treated similarly to recombinant TDP1 reactions.
TDP2, as opposed to TDP1, cleaves the phosphotyrosyl linkage in 5′-phosphotyrosyl-DNA oligonucleotides.

In a further data set the target is recombinant TDP1 (Homo sapiens, UniProt Q9NUW8). In words: Recombinant TDP1 assay. The class given is biochemical. The following applies: recombinant TDP1, gel-based; read-out: TDP1: IC50 values for the inhibition of TDP1. As to the method: A 5′-[^32P]-labeled single-stranded DNA oligonucleotide containing a 3′-phosphotyrosine (N14Y) was incubated at 1 nM with 10 pM recombinant TDP1 in the absence or presence of inhibitor for 15 min at room temperature in the LMP1 assay buffer containing 50 mM Tris HCl, pH 7.5, 80 mM KCl, 2 mM EDTA, 1 mM DTT, 40 μg/mL BSA, and 0.01% Tween-20^18. […] Gels were dried and exposed to a PhosphorImager screen (GE Healthcare). Gel images were scanned using a Typhoon 8600 (GE Healthcare), and densitometry analyses were performed using ImageQuant software (GE Healthcare).
recombinant TDP1, sequence (Q9NUW8 whole entry, species assumed): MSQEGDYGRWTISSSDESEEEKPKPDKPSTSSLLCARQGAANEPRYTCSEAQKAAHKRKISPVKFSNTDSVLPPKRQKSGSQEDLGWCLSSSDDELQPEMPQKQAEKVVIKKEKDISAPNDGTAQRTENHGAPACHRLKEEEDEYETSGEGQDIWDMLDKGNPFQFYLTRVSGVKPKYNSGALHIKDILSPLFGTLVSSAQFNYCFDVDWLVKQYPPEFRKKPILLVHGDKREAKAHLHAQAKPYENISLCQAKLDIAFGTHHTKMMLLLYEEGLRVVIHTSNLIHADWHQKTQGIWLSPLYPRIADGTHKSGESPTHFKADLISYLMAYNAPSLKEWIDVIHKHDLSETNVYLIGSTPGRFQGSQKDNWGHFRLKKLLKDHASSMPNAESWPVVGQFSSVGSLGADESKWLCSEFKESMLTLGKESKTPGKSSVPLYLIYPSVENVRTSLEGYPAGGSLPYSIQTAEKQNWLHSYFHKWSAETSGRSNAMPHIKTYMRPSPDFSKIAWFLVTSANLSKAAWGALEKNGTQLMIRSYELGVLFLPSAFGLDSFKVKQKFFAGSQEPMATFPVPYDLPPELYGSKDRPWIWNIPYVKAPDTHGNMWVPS
TDP1 is involved in the repair of DNA damage that results from the action of Top1 poisons, which induce the formation of DNA-protein adducts that include a 3′-phosphotyrosyl linkage. The TDP1 inhibition assay assesses a test agent's ability to inhibit the enzyme-induced cleavage of a 5′-^32P, 3′-phosphotyrosyl-DNA oligonucleotide, called N14Y. Cleavage of the phosphodiester bond between the 3′-phosphate and tyrosine releases […] from the DNA oligonucleotide. The enzyme-processed DNA oligonucleotide lacking its 3′-phosphotyrosyl moiety is designated N14P. A schematic representation of the assay and a representative gel are shown in FIG. 2, and the TDP1 screening results are listed in Table 1.

The test system of data set [1] is 60 human cancer cell lines. In words: NCI-60 single-dose cytotoxicity assay. The settings on record: mean-graph midpoint of percent growth of 60 human cancer cell lines, 10 μM drug, 48 h, relative to no-drug control and time zero. The class given is cell-based. The protocol:
(§1) The new indenoisoquinolines were evaluated for cancer cell growth inhibitory activities. The National Cancer Institute's NCI-60 cytotoxicity assay measures the ability of test agents to inhibit the growth of approximately 60 different cancer cell lines. In the initial single-dose assay, cells are treated with a 10 μM dose of test agent. The growth of treated cells versus untreated cells is then compared. If a test agent induces a sufficiently low mean growth percent, it is promoted to five-dose testing to determine a mean graph midpoint (MGM) GI50 value. In five-dose testing, cells are treated with test agent concentrations ranging from 10^−8 to 10^−4 M. The concentration required to achieve 50% growth inhibition in a particular cell line is calculated. In situations in which this value is greater than 100 μM or less than 0.01 μM, it is recorded as 100 μM and 0.01 μM, respectively. The values for each of the tested cell lines are averaged to obtain a mean graph midpoint (MGM) GI50 value. MGM GI50 values are often, but not always, determined from two separate rounds (Table 1).

The next data set addresses T2, Top1 (Homo sapiens, UniProt P11387).
T2 sequence (P11387 1-765): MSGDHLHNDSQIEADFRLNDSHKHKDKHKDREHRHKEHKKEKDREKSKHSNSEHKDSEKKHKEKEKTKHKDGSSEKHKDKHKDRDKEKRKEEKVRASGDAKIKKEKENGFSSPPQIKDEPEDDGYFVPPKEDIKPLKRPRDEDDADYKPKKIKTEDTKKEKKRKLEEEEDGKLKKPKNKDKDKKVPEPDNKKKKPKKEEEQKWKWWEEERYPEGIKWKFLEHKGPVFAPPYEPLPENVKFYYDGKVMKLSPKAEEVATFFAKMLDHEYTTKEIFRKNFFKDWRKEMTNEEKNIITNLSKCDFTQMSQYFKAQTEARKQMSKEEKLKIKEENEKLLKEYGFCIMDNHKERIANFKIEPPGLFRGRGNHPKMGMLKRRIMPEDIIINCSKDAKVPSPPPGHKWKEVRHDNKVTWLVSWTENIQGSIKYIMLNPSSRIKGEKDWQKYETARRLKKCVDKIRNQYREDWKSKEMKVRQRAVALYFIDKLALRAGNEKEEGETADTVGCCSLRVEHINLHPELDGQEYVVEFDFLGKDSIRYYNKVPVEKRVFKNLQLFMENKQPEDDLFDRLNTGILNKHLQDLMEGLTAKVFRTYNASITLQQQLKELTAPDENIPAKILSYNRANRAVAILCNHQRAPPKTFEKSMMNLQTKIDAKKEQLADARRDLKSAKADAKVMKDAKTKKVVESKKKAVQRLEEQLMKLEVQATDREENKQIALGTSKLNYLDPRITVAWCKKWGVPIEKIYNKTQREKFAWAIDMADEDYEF
In words: Top1-mediated DNA cleavage assay. The class given is biochemical. The following applies: score based on the activity of 1 μM 1 (camptothecin); tested at 0.1, 1, 10, 100 μM. As to the method:
Approximately 2 nM radiolabeled DNA substrate was incubated with recombinant Top in 20 μL of reaction buffer [10 mM Tris-HCl (pH 7.5), 50 mM KCl, 5 mM MgCl2, 0.1 mM EDTA, and 15 μg/mL BSA] at 25° C. for 20 min in the presence of various concentrations of test compounds. […] Aliquots of each reaction mixture were subjected to 20% denaturing PAGE.
The Top1-mediated DNA cleavage assay was used to measure Top1 inhibitory activity. This assay measures the ability of the compound to stabilize DNA cleavage in a 3′-[^32P]-labeled DNA substrate via Top1 poisoning.

Another data set relates to Colon, HCT-116. In words: NCI-60 five-dose cytotoxicity assay, HCT-116. The following applies: Homo sapiens, HCT-116, read-out: Cytotoxicity GI50, Colon, HCT-116. The protocol: as §1
The subject of data set [2] is approximately 60 different cancer cell lines. In words: NCI-60 five-dose cytotoxicity assay, mean graph midpoint. The settings on record: Homo sapiens; 5 dose assay, 10^−8-10^−4 M; average over tested cell lines; read-out: MGM: mean graph midpoint of growth inhibition (GI50). It counts as cell-based. The protocol: as §1
A further data set concerns Ovarian, OVCAR-3. Nature of the data set: NCI-60 five-dose cytotoxicity assay, OVCAR-3. The settings on record: Homo sapiens, OVCAR-3, read-out: Cytotoxicity GI50, Ovarian, OVCAR-3. As to the method: as §1
The next data set relates to Renal, SN12C. Nature of the data set: NCI-60 five-dose cytotoxicity assay, SN12C. The following applies: Homo sapiens, read-out: Cytotoxicity GI50, Renal, SN12C. As to the method:
as §1

The next data set deals with Prostate, DU-145. Nature of the data set: NCI-60 five-dose cytotoxicity assay, DU-145. The following applies: Homo sapiens, DU-145, read-out: Cytotoxicity GI50, Prostate, DU-145. As to the method:
as §1

Another data set relates to Melanoma UACC-62. Nature of the data set: NCI-60 five-dose cytotoxicity assay, UACC-62. The following applies: Homo sapiens, UACC-62, read-out: Cytotoxicity GI50, Melanoma UACC-62. As to the method:
as §1

In a further data set the test system is Breast, MCF7. In words: NCI-60 five-dose cytotoxicity assay, MCF7. The settings on record: Homo sapiens, MCF7, read-out: Cytotoxicity GI50, Breast, MCF7. As to the method:
as §1

In another data set the test system is Lung, HOP-62. Nature of the data set: NCI-60 five-dose cytotoxicity assay, HOP-62. The settings on record: Homo sapiens, HOP-62, read-out: Cytotoxicity GI50, Lung, HOP-62. The protocol: as §1

What is called IC50 is the point on the concentration scale where inhibition reaches its midpoint. For orientation: melting point means the temperature of the solid-liquid transition. As a reminder, the GI50 is the concentration giving 50% growth inhibition.

Structures are written as SMILES. “And” between values parts separate entries of the source, which are not always exact repeats. Equal values may be shown once. Where a name gives a salt, the structure may show the parent alone. A value given as a limit tells only on which side of the number the result lay.

Compound `O=C1c2ccccc2-c2c1c1cccnc1c(=O)n2CCCn1ccnc1` [Compound 43, 4-Aza-5,6-dihydro-6-(3-(1H-imidazol-1-yl)propyl)-5,11-dioxo-indeno[1,2-c]isoquinoline] displayed a melting point of 251 to 252 °C. In addition, the half-maximal inhibitory concentration (IC50) on recombinant human TDP2 is more than 111 µM. On recombinant TDP1, the IC50 was more than 111 µM. Moreover, the “Mean Growth %” value in [1] is given as 49.6%. Also, the “Top 1: compound-induced DNA cleavage due to Top1 poisoning” value (from here on “Top 1: compound-induced DNA cleavage due”) at Top1 is “+++ (+++, between 75 and 95% activity)”.

In the case of `CN(C)CCCn1c2c(c3ncccc3c1=O)C(=O)c1ccccc1-2` [Compound 44, 1-Aza-5,6-dihydro-6-(3-(dimethylamino)propyl)-5,11-dioxo-indeno[1,2-c]isoquinoline], the melting point lay in the range of 187 to 188 °C. Moreover, the IC50 at recombinant human TDP2 was more than 111 µM. The IC50 on recombinant TDP1 was 90 µM. Further, in [1], the “Mean Growth %” value is recorded as 44.4%. In addition, the “Top 1: compound-induced DNA cleavage due” value at Top1 was “++ (++, between 50 and 75% activity)”.

For the compound `CN(C)CCCn1c2c(c3ccncc3c1=O)C(=O)c1ccccc1-2` [Compound 46, 3-Aza-5,6-dihydro-6-(3-(dimethylamino)propyl)-5,11-dioxo-11H-indeno[1,2-c]isoquinoline], the melting point fell in the range of 168 to 170 °C. For the same compound, in the data set on Colon, HCT-116, the GI50 worked out at 0.38 µM. The GI50 in [2] worked out at 0.977 µM. Further, the 50% growth inhibitory concentration (GI50) in the data set with Ovarian, OVCAR-3 turned out to be 2 µM. Also, at Top1, the “Top 1: compound-induced DNA cleavage due” value was “++ (++, between 50 and 75% activity)”.

`CN(C)CCCn1c2c(c3cccnc3c1=O)C(=O)c1ccccc1-2` [Compound 47, 4-Aza-5,6-dihydro-6-(3-(dimethylamino)propyl)-5,11-dioxo-indeno[1,2-c]isoquinoline] gave a melting point of 183 to 184 °C. Besides, the IC50 on recombinant human TDP2 was more than 111 µM. At recombinant TDP1, the IC50 was approximately 111 µM. Moreover, the GI50 in the data set on Colon, HCT-116 was 0.437 µM. Besides, the GI50 in the data set on Renal, SN12C was found to be 1.12 µM. In the data set with Prostate, DU-145, the GI50 amounted to 1.91 µM. The compound further displayed an activity at 10 µM in data set [1] of 5.45%. Also, the GI50 in data set [2] turned out to be 1.26 µM. Also, in the data set on Melanoma UACC-62, the GI50 was found to be 1.29 µM. Besides, the GI50 with Ovarian, OVCAR-3 was 2.4 µM. Also, in the data set on Breast, MCF7, the GI50 was 0.363 µM. Also, on Top1, the “Top 1: compound-induced DNA cleavage due” value was “+++ (+++, between 75 and 95% activity)”.

Regarding `O=C1c2ccccc2-c2c1c1ncccc1c(=O)n2C[C@H](O)CO` [Compound 48, (2′S)-1-Aza-5,6-dihydro-6-(2′,3′-dihydroxypropyl)-5,11-dioxo-indeno[1,2-c]isoquinoline], the melting point was 245 to 250 °C (dec.). In addition, the IC50 on recombinant human TDP2 was more than 111 µM. Moreover, the concentration for half-maximal inhibition (IC50) at recombinant TDP1 was more than 111 µM. In data set [1], the “Mean Growth %” value is reported as 100%. Also, on Top1, the “Top 1: compound-induced DNA cleavage due” value is “+ (+, between 20 and 50%activity)”.

For the compound `O=C1c2ccccc2-c2c1c1cnccc1c(=O)n2C[C@H](O)CO` [Compound 49, (2′S)-2-Aza-5,6-dihydro-6-(2′,3′-dihydroxypropyl)-5,11-dioxo-indeno[1,2-c]isoquinoline], the melting point was 229 to 232 °C. In addition, the IC50 at recombinant human TDP2 was more than 111 µM. Moreover, the IC50 on recombinant TDP1 is more than 111 µM. In addition, the “Mean Growth %” value in [1] is listed as 85.5%. Also, the “Top 1: compound-induced DNA cleavage due” value on Top1 was “+ (+, between 20 and 50%activity)”.

For the compound `O=C1c2ccccc2-c2c1c1cccnc1c(=O)n2C[C@H](O)CO` [Compound 51, (2′S)-4-Aza-5,6-dihydro-6-(2′,3′-dihydroxypropyl)-5,11-dioxo-indeno[1,2-c]isoquinoline], the melting point was in the range of 247 to 255 °C. For the same compound, the IC50 on recombinant human TDP2 is more than 111 µM. Further, the 50% inhibitory concentration (IC50) on recombinant TDP1 is more than 111 µM. In data set [1], the “Mean Growth %” value came out at 61.7%. For the same compound, the “Top 1: compound-induced DNA cleavage due” value at Top1 was “+ (+, between 20 and 50%activity)”.

Consider `NCCCn1c2c(c3cccnc3c1=O)C(=O)c1ccccc1-2` [Compound 60, 6-(3-Aminopropyl)-4-aza-5,6-dihydro-5,11-dioxo-indeno[1,2-c]isoquinoline Dihydrochloride], for which the IC50 is more than 111 µM at recombinant human TDP2; 60 µM and > 111 µM at recombinant TDP1. The GI50 in the data set on Colon, HCT-116 came to 0.537 µM; with Renal, SN12C, 1.12 µM; in the data set on Prostate, DU-145, 1.91 µM; in [2], 1.51 µM; with Melanoma UACC-62, 1.35 µM; in the data set on Ovarian, OVCAR-3, 2.29 µM. In addition, the GI50 with Lung, HOP-62 was determined as 1.45 µM; in the data set on Breast, MCF7 it was 0.417 µM. This compound also had an activity at 10 µM in data set [1] of 12.2%. Also, the “Top 1: compound-induced DNA cleavage due” value on Top1 is “++ (++, between 50 and 75% activity)”.
